# Test results: patent US6197771A, “Glutamate (ampa/kainate) receptor antagonists: N-substituted fused azacycloalkylquinoxalinediones” (Warner-Lambert Company, priority 2000, dated 2001)
# Structures can show the parent of a compound that is named as a salt.
# How the values were obtained:
# AMPA receptor = AMPA receptor binding (Honore et al.)
# [1] = molecular target: T1, glycine site of the NMDA receptor (Rattus norvegicus, UniProt P35439); assay: Binding to the glycine site of the NMDA receptor (Jones et al.)
# T1 construct: from tissue
# [2] = molecular target: kainate site (non-NMDA receptor); assay: Kainate site (non-NMDA receptor) binding (London and Coyle)
SMILES,IC50 (AMPA receptor),inhibition at 10 µM [1],IC50 [2]
"O=c1[nH]c2ccc3c(c2[nH]c1=O)CNCC3 [Example 30, 1,4,7,8,9,10-Hexahydropyrido[3,4-f]quinoxaline-2,3-dione]",84 µM,,56 µM
"O=c1[nH]c2ccc3c(c2[nH]c1=O)CN(Cc1ccc(C(F)(F)F)cc1)CC3 [Example 17, 1,4,7,8,9,10-Hexahydro-9-[[4-(trifluoromethyl)phenyl]methyl]pyrido[3,4-f]quinoxaline-2,3-dione]",> 100 µM,,> 100 µM
"O=c1[nH]c2cc([N+](=O)[O-])c3c(c2[nH]c1=O)CNCC3 [Example 31, 1,4,7,8,9,10-Hexahydro-6-nitropyrido[3,4-f]quinoxaline-2,3-dione]",51 µM,70%,0.48 µM
"O=c1[nH]c2cc(Br)c3c(c2[nH]c1=O)CN(CCc1ccccc1)CC3 [Example 11, 6-Bromo-1,4,7,8,9,10-hexahydro-9-(2-phenylethyl)pyrido[3,4-f]quinoxaline-2,3-dione]",> 100 µM,< 50%,9 µM
O=c1[nH]c2ccc3c(c2[nH]c1=O)CCN(Cc1ccc(C(F)(F)F)cc1)C3 [Example 26],> 100 µM,,> 100 µM
"O=c1[nH]c2cc(Br)c3c(c2[nH]c1=O)CCN(CCCc1ccccc1)C3 [Example 54, 6-Bromo-1,4,7,8,9,10-hexahydro-8-(3-Phenylproyl)pyrido[3,4-f]quinoxaline-2,3-dione hydrochloride]",43 µM,,> 100 µM
"O=c1[nH]c2cc(Br)c3c(c2[nH]c1=O)CN(CCCc1ccccc1)CC3 [Example 14, 6-Bromo-1,4,7,8,9,10-hexahydro-9-(3-phenylpropyl)pyrido[3,4-f]quinoxaline-2,3-dione]",> 100 µM,< 50%,40 µM
"CC(C)(C)OC(=O)N1CCC(C(=O)N2CCc3ccc4[nH]c(=O)c(=O)[nH]c4c3C2)CC1 [Example 32, 1,1-dimethylethyl 4-[(1,2,3,4,7,8,9,10-octahydro-2,3-dioxopyrido[3,4-f]quinoxaline-9-yl)carbonyl]-1-piperidine carboxylate]",> 100 µM,,65 µM

# Now those with a lower IC50 (AMPA receptor), led by results:
IC50 (AMPA receptor),inhibition at 10 µM [1],IC50 [2],SMILES
0.58 µM,81%,6.9 µM,"CC(C)(C)OC(=O)N1CCC(C(=O)N2CCc3c([N+](=O)[O-])cc4[nH]c(=O)c(=O)[nH]c4c3C2)CC1 [Example 34, 1,1-dimethylethyl 4-[(1,2,3,4,7,8,9,10-octahydro-6-nitro-2,3-dioxopyrido[3,4-f]quinoxaline-9-yl)carbonyl]-1-piperidine carboxylate]"
0.84 µM,98%,8.2 µM,O=C(Cc1ccc(Cl)cc1)N1CCc2c([N+](=O)[O-])cc3[nH]c(=O)c(=O)[nH]c3c2C1 [Example 39]
0.34 µM,88%,5.87 µM,"O=C(C1CCCCC1)N1CCc2c([N+](=O)[O-])cc3[nH]c(=O)c(=O)[nH]c3c2C1 [Example 36, 9-(Cyclohexylcarbonyl)-1,4,7,8,9,10-hexahydro-6-nitropyrido[3,4-f]quinoxaline-2,3-dione]"
3.1 µM,,34 µM,O=c1[nH]c2cc([N+](=O)[O-])c3c(c2[nH]c1=O)CN(Cc1ccc(C(F)(F)F)cc1)CC3 [Example 18]
20 µM,< 50%,16 µM,"O=c1[nH]c2cc(Br)c3c(c2[nH]c1=O)CN(Cc1ccccc1)CC3 [Example 8, 6-Bromo-1,4,7,8,9,10-hexahydro-9-(phenylmethyl)pryrido[3,4-f]quinoxaline-2,3-dione]"
0.84 µM,74%,8.2 µM,"O=C(c1ccc(Cl)cc1)N1CCc2c([N+](=O)[O-])cc3[nH]c(=O)c(=O)[nH]c3c2C1 [Example 37, 9-(4-Chlorobenzoyl)-1,4,7,8,9,10-hexahydro-6-nitropyrido[3,4-f]quinoxaline-2,3-dione]"
0.24 µM,99%,1.62 µM,"O=C(Cc1ccccc1)N1CCc2c([N+](=O)[O-])cc3[nH]c(=O)c(=O)[nH]c3c2C1 [Example 38, 1,4,7,8,9,10-Hexahydro-6-nitro-9-(phenylacetyl)pyrido(3,4-f]quinoxaline-2,3-dione]"
21 µM,,67 µM,"O=c1[nH]c2cc(Br)c3c(c2[nH]c1=O)CCN(Cc1cccc(C(F)(F)F)c1)C3 [Example 48, 6-Bromo-1,4,7,8,9,10-Hexahydro-8-[[3-(trifluoromethyl)methyl]pyrido[3,4-f]quinoxaline-2,3-dione hydrochloride]"
0.37 µM,80%,1.38 µM,"O=C(c1ccccc1)N1CCc2c([N+](=O)[O-])cc3[nH]c(=O)c(=O)[nH]c3c2C1 [Example 35, 9-Benzoyl-1,4,7,8,9,10-hexahydro-6-nitropyrido[3,4-f]quinoxaline-2,3-dione]"
